Test results reported in ChEMBL document CHEMBL5244208, “Privileged scaffolds as MAO inhibitors: Retrospect and prospects” (Eur J Med Chem, 2018).
Where “and” joins values, the source holds several entries; their conditions need not be identical. Equal values may be shown once.

How the values were obtained:
Acetylcholinesterase = Acetylcholinesterase (Homo sapiens, UniProt P22303); test: Inhibition of AChE (unknown origin) using acetylthiocholine chloride as substrate incubated for 5 mins by DTNB reagent based Ellman's method
[1] = target: T1, Amine oxidase [flavin-containing] B (Homo sapiens, UniProt P27338); test: Inhibition of human MAO-B
T1 sequence (P27338 whole entry): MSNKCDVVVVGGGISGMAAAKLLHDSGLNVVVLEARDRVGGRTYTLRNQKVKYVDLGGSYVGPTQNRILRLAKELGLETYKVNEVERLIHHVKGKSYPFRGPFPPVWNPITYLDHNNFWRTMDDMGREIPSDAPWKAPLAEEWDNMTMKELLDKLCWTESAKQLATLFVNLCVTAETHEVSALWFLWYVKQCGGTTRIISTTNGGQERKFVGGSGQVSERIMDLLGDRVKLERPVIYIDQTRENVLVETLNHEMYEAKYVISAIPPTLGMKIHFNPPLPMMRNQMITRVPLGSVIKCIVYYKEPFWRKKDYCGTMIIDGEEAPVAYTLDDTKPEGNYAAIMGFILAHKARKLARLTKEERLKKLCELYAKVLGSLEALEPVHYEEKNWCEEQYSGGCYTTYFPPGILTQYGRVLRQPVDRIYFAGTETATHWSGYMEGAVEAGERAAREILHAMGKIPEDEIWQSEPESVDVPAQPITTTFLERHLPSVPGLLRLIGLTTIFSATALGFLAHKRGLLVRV

[2] = target: T2, Amine oxidase [flavin-containing] A (Homo sapiens, UniProt P21397); test: Inhibition of recombinant human MAO-A using kynuramine as substrate incubated for 20 mins by spectrophotometry analysis
T2 sequence (P21397 whole entry): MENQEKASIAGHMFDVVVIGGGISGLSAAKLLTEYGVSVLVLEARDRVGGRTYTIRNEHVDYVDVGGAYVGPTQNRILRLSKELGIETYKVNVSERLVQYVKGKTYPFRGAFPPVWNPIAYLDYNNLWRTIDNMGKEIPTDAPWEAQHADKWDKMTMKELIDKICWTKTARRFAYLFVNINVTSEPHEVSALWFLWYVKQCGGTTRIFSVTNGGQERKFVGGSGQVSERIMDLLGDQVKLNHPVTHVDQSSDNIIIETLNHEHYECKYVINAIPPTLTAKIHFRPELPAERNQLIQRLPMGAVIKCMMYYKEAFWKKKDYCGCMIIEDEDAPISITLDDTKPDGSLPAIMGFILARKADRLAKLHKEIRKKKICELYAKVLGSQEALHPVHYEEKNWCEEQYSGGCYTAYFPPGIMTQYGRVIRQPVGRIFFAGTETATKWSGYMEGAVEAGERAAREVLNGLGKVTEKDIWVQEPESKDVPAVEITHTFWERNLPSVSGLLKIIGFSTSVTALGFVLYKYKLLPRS

[3] = target: T2, Amine oxidase [flavin-containing] A; test: Inhibition of MAO-A (unknown origin)
[4] = target: T2, Amine oxidase [flavin-containing] A; test: Inhibition of human recombinant MAO-A
[5] = target: T1, Amine oxidase [flavin-containing] B; test: Inhibition of MAO-B (unknown origin)
[6] = target: T2, Amine oxidase [flavin-containing] A; test: Inhibition of human MAO-A using tyramine hydrochloride as substrate preincubated for 30 mins followed by substrate addition and measured for 1 hr by microplate reader method
[7] = target: T1, Amine oxidase [flavin-containing] B; test: Irreversible inhibition of human recombinant MAO-B
[8] = target: T2, Amine oxidase [flavin-containing] A; test: Irreversible inhibition of human recombinant MAO-A
[9] = target: T2, Amine oxidase [flavin-containing] A; test: Inhibition of MAO-A (unknown origin) incubated for 60 mins by fluorometric spectrophotometry analysis
[10] = target: T3, Amine oxidase [flavin-containing] A (Rattus norvegicus, UniProt P21396); test: Inhibition of rat MAO-A
T3 sequence (P21396 whole entry): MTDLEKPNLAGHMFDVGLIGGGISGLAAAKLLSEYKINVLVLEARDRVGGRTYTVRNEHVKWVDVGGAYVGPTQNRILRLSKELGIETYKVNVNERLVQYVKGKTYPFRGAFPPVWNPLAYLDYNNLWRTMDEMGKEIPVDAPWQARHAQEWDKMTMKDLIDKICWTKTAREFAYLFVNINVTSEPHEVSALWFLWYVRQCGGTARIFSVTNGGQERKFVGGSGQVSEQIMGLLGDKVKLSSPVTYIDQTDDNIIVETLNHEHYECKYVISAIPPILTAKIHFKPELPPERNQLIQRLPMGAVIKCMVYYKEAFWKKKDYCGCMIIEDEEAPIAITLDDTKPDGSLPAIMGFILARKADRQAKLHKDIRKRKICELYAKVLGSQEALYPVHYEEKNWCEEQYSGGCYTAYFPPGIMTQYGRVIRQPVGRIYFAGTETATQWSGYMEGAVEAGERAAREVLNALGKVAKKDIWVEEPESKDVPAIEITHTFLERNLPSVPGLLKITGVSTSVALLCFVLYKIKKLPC

[11] = target: T3, Amine oxidase [flavin-containing] A; test: In vivo inhibition of MAO-A in Wistar rat with assessed as decrease in MAO activity in […] at 10 to 30 mg/kg, ip measured after 2 hrs; type: functional, organism-based; design: scale not given: the % may be the effect or the level left; details: dose 10-30 mg/kg

Acetylcholinesterase, sequence (P22303 whole entry): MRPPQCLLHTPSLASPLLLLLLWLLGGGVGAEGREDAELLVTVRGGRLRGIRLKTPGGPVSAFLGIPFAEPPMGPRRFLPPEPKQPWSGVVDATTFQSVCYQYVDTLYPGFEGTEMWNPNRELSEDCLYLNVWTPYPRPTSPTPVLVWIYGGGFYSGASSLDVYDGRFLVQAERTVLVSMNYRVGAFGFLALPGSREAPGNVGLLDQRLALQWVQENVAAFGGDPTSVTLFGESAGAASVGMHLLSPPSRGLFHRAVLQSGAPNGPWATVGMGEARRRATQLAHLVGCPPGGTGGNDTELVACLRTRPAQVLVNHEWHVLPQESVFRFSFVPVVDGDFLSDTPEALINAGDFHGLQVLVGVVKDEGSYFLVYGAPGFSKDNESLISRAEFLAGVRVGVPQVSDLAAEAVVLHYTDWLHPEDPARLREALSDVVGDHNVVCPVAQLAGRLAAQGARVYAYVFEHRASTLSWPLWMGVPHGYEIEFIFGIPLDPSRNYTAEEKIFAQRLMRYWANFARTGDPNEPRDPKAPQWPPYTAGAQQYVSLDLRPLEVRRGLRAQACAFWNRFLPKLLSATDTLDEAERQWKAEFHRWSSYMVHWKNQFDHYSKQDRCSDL

Cc1c(C)c2ccc(OCc3cccc(O)c3)cc2oc1=O gave an IC50 (Acetylcholinesterase) of 3 µM.
Cc1ccccc1COc1ccc2c(C)c(C)c(=O)oc2c1 showed an IC50 (Acetylcholinesterase) of 3 µM.
For Cc1c(C)c2ccc(OCc3cc(F)cc(F)c3)cc2oc1=O, the IC50 (Acetylcholinesterase) was 3 µM.
Compound Cc1c(C)c2ccc(OCCc3ccccc3)cc2oc1=O has an IC50 (Acetylcholinesterase) of 3 µM.
For Cc1c(C)c2ccc(OCc3ccccc3)cc2oc1=O, the IC50 (Acetylcholinesterase) was 3 µM.
Compound OCCn1nnc(-c2ccc(OCc3cccc(Cl)c3)cc2)n1 has an IC50 [1] of 0.002 µM.
N#CCCn1nnc(-c2ccc(OCc3cccc(Cl)c3)cc2)n1 gave an IC50 [1] of 8 µM.
Work on OCCn1nnc(-c2ccc(OCc3ccccc3)cc2)n1 yielded an IC50 [1] of 0.002 µM.
COC[C@H]1CN(n2cccc2)C(=O)O1 gave a Ki [2] of 0.0049 µM.
CC(=O)Nc1ccc2c(c1)S(=O)(=O)c1ccccc1N2C showed an IC50 [4] of 0.01 µM.
Compound CC(=O)Nc1ccc2c(c1)C(=O)c1ccccc1C2=O has an IC50 [4] of 0.01 µM.
With CC(=O)Nc1ccc2c(O)c3ccccc3nc2c1 the IC50 [4] was 0.01 µM.
Cc1c(C)c2ccc(OCc3cccc(N)c3)cc2oc1=O was tested, and the IC50 (Acetylcholinesterase) was 3 µM.
With Cc1c(C)c2ccc(OCc3ccc(F)c(F)c3)cc2oc1=O the IC50 (Acetylcholinesterase) was 3 µM.
Work on CCc1ccc2c(c1)S(=O)(=O)c1cc(NC(C)=O)ccc1C2=O yielded an IC50 [4] of 0.01 µM.
For N#CCCn1nnc(-c2ccc(OCc3ccccc3)cc2)n1, the IC50 [1] was 8 µM.
COc1ccc(/C(=C\F)CN)cc1OC was tested, and the IC50 ([5]; read-out: IC50) was 0.01 µM.
Work on COc1cc(O)cc(O[C@H]2O[C@@H](CO)[C@H](O)[C@H]2O)c1C(=O)c1cc(O)cc(O)c1 yielded an IC50 [6] of 310 µM.
Work on C#CCN(C)Cc1ccc(C(=O)NC2CC(C)(C)N([O])C(C)(C)C2)cc1 yielded a Ki [7] of 15 µM.
Compound CC(=O)Nc1cc2c(cc1NC(C)=O)S(=O)(=O)c1ccccc1C2 has an IC50 [4] of 0.01 µM.
Cc1cc(=O)c2cc(Oc3ccccc3)ccc2o1 gave an IC50 (Acetylcholinesterase) of 3 µM.
Compound O=C(c1cc(O)cc(O)c1)c1c(O)cc(O)cc1O[C@H]1O[C@@H](CO)[C@H](O)[C@H]1O has an IC50 [6] of 111 µM.
Compound Oc1ccc(/C=C/c2cc(O)cc3c2[C@@H](c2cc(O)cc(O)c2)C(c2ccc(O)cc2)O3)cc1 (stereo not given in full) has an IC50 [1] of 5 µM.
In the case of C#CCN(C)Cc1cccc(C(=O)NC2CC(C)(C)N([O])C(C)(C)C2)c1, the Ki [8] is reported as 268 µM.
O=c1oc2ccc(Cl)cc2cc1Cl gave an IC50 ([5]; read-out: pIC50 (converted)) of 0.01 µM.
O=C(c1cc(O)cc(O)c1)c1c(O[C@@H]2OC[C@@H](O)[C@H](O)[C@H]2O)cc(O)cc1O[C@H]1O[C@@H](CO)[C@H](O)[C@H]1O gave an IC50 [6] of 726 µM.
For O=c1ccoc2ccc(Oc3ccccc3)cc12, the IC50 (Acetylcholinesterase) was 3 µM.
In the case of CCCc1ccc2c(c1)S(=O)(=O)c1cc(NC(C)=O)ccc1C2=O, the IC50 [4] is reported as 0.01 µM.
Work on CC(=O)Nc1ccc2c(c1)S(=O)(=O)c1ccccc1C2=O yielded an IC50 [4] of 0.01 µM.
CC(=O)Nc1ccc2c(c1)S(=O)(=O)c1cc(C)ccc1C2=O was tested, and the IC50 [4] was 0.01 µM.
CC(=O)Nc1ccc2c(c1)S(=O)(=O)c1ccccc1N2 showed an IC50 [4] of 0.01 µM.
Compound O=CN(C=O)c1ccc2c(c1)S(=O)(=O)c1ccccc1C2=O has an IC50 [4] of 0.01 µM.
Compound CC(=O)Nc1ccc2c(c1)S(=O)(=O)c1ccccc1O2 has an IC50 [4] of 0.01 µM.
Compound CC(=O)Nc1ccc2c(c1)C(=O)c1ccccc1S2(=O)=O has an IC50 [4] of 0.01 µM.
CC(=O)Nc1cccc2c1C(=O)c1ccccc1C2=O showed an IC50 [4] of 0.01 µM.
For CC(=O)Nc1ccc2c(c1)S(=O)(=O)c1cc(NC(C)=O)ccc1N2C, the IC50 [4] was 0.01 µM.
In the case of C/C(=C\COc1ccc2ccc(=O)oc2c1)C1=CC(=O)C(C)(C)O1 [GEIPARVARIN], the IC50 ([5]; read-out: pIC50 (converted)) is reported as 24 µM.
O=c1c(O[C@@H]2O[C@H](CO)[C@@H](O)[C@H](O)[C@H]2O)c(-c2ccc(O)c(O)c2)oc2cc(O)cc(O)c12 [ISOQUERCETIN] gave an IC50 [9] of 19.1 µM.
Compound O=C1C[C@@H](c2ccc(O)cc2)Oc2cc(O)cc(O)c21 [NARINGENIN] has an IC50 [10] of 342 µM.
In the case of C[C@]12CC[C@H](O)CC1=CC[C@@H]1[C@@H]2CC[C@]2(C)C(=O)CC[C@@H]12 [PRASTERONE], the Activity [11] is reported as -24%.
O=c1c(O)c(-c2ccc(O)c(O)c2)oc2cc(O)cc(O)c12 [QUERCETIN] was tested, and the IC50 [9] was 11.6 µM and 10.9 µM.
C[C@@H]1O[C@@H](Oc2c(-c3ccc(O)c(O)c3)oc3cc(O)cc(O)c3c2=O)[C@H](O)[C@H](O)[C@H]1O [QUERCITRIN] gave an IC50 [3] of 18 µM.
C[C@@H]1O[C@@H](OC[C@H]2O[C@@H](Oc3c(-c4ccc(O)c(O)c4)oc4cc(O)cc(O)c4c3=O)[C@H](O)[C@@H](O)[C@@H]2O)[C@H](O)[C@H](O)[C@H]1O [RUTIN] was tested, and the IC50 [9] was 3.89 µM.
With NS(=O)(=O)Cc1noc2ccccc12 [ZONISAMIDE] the Ki [5] was 30.8 µM.
